These results are taken from patent US20030040506A1 (priority 2002, published 2003).

This series in a line: Acid stability (acid-mediated hydrolytic decomposition, simulated stomach conditions). It counts as physicochemical. The settings on record: pH 1, 25° C.; for Compound left (%): 0.3 mg/mL in dilute hydrochloric acid, HPLC. As for the experimental part: Compounds were tested for their stability towards acid-mediated hydrolytic decomposition employing a test designed to simulate stomach conditions. Each compound was incubated at an initial concentration of 0.3 mg/mL in dilute hydrochloric acid at pH 1 for 24 hours at 25° C. HPLC was run immediately for t=0 and at intervals up to approximately 24 hours. The results for compounds of Example 2, part b, Example 9, and for comparative phosphoramidates of 2′,3′-dideoxy-adenosine (Compound 1093) and 2′,3′-didehydro-2′,3′-dideoxy-adenosine (Compound 1001), described in PCT/GB96/00580, are given in the table below.

`COC(=O)C(C)(C)NP(=O)(OC[C@@H]1C=C[C@H](n2cnc3c(NCC4CC4)nc(N)nc32)C1)Oc1ccccc1` (relative stereo) [Example 9]: the “Compound left (%)” value is 100% (Time 0 hr), 96% (Time 13 hr) and 94% (Time 24 hr). For the same compound, the “Acid stability in words” value (after 24 hours, dilute hydrochloric acid) was “remained intact”.
